Data set [1] is described as follows: Secondary screen: crystallinity (XRPD). To be noted: for Crystallinity: secondary screen, Table 5. The format is physicochemical. As to the method:
X-Ray Powder Diffraction patterns were collected on a Siemens D5000 diffractometer using CuKα radiation (40 kV, 40 mA), […], automatic divergence and receiving slits, a graphite secondary monochromator and a scintillation counter.
Samples run under ambient conditions were prepared as flat plate specimens using powder. Approximately 35 mg of the sample was gently packed into a cavity cut into polished, zero-background (510) silicon wafer. The sample was rotated in its own plane during analysis. The details of the data collection are given for the method in Table 2 below: […]

Data set [2] is described as follows: Primary salt screen (purity, crystallinity and stability of precipitated salts). The conditions noted are these: 20 mg free base in 10% (aq.) THF, 1.1 eq. acid in ethanol, tert-butyl methyl ether to induce precipitation.
Protocol: To 20 mg of the free base in 3 mL of 10% (aq.) THF mixture was added 1.1 eq. of the acid in 1 mL ethanol. The mixture was shaken for 2 hours, followed by the addition of 2 mL of tert-butyl methyl ether in order to induce precipitation and shaken for another 2 hours. The samples were then filtered, dried and then analyzed to judge their purity, crystallinity and stability.
Data set [3] in a line: Gravimetric vapour sorption (GVS) water sorption. The format is physicochemical. The conditions noted are these: GVS isotherm, XRPD post GVS. As to the method:
All samples were run on a Hiden IGASorp moisture sorption analyzer running CFRSorp software. Sample sizes were typically 10 mg. A moisture adsorption desorption isotherm was performed as outlined below (2 scans giving 1 complete cycle). All samples were loaded/unloaded at typical room humidity and temperature (40% RH, 25° C.). All samples were analyzed by XRPD post GVS analysis. The standard isotherm was performed at 25° C. at 10% RH intervals over a 0-90% RH range.

A short description of data set [4]: Solubility in water by HPLC. The format is physicochemical. The method, then:
This was measured by suspending enough salt in 0.25 mL of solvent (water) to give a maximum final concentration of ≧10 mg/mL of the parent free form of the salt. The suspension was equilibrated at 25° C. for 24 hr followed by a pH check and filtration through a glass fibre C 96 well plate. The filtrate was then diluted down 101×. Quantitation was by HPLC with reference to a standard dissolved in DMSO at approx 0.1 mg/mL. Different volumes of the standard, diluted and undiluted tests were injected. […] If there was sufficient solid in the filter plate the XRPD was normally checked for phase changes, hydrate formation, amorphization, crystallization, etc.

Data set [5] can be described thus: Log P determination by potentiometric titration (Sirius GlpKa). The format is physicochemical. To be noted: Octanol:ISA water. The source says:
This was by potentiometric titration on a Sirius GlpKa instrument using three ratios of Octanol:ISA water to generate Log P, Log Pion, and Log D values. The data was refined using Refinement Pro software version 1.0. Predictions of Log P were made using ACD Ver. 8.08 and Syracuse KNOWWIN Ver. 1.67 software.

Data set [6] can be described thus: Stability: hydrolyzed amidine content by HPLC after 57° C. / 75% humidity. The format is physicochemical. To be noted: for Hydrolyzed Amidine Content (3 days) / Hydrolyzed Amidine Content (6 days) / Hydrolyzed Amidine Content (10 days): 57° C., 75% room humidity, percentage of the main peak. The method, then:
To assess the thermal and hydrolytic stability of the salt, tests known to those of skill in the art are performed.
The sample solvent was methanol and a mobile phase modifier of 0.1% trifluoroacetic acid was employed. Data were collected after 3, 6 and 10 days except data for the propionate was collected at 0, 3, and 8 days. […] All other impurity peaks were disregarded in the calculation

Data set [7] concerns the target factor Xa (Homo sapiens, UniProt P00742). The conditions noted are these: cited from earlier work.

Like-named read-outs stand apart in the source and are kept apart here.

For orientation: solubility means the dissolved amount per volume that the medium holds. Broadly, the logD is the decadic logarithm of the distribution of all forms, ionised or not, between an organic phase and buffer at a given pH. For orientation: logP means a log measure of how a compound divides between an organic and an aqueous phase.

Chain of factor Xa (P00742 235-488 limits assumed): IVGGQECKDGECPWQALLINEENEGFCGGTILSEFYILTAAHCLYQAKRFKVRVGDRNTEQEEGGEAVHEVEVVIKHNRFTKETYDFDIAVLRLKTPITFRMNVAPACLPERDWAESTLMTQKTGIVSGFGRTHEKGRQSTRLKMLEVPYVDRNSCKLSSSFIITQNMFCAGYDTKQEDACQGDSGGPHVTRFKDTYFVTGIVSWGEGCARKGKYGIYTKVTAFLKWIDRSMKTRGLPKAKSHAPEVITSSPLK
Chain of factor Xa (P00742 41-179 partner limits assumed): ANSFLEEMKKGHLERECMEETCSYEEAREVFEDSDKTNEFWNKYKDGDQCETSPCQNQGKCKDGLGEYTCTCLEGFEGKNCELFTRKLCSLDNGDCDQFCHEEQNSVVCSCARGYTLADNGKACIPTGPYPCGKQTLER

In the case of `O=C(O)CCC(=O)O` [Succinic], in data set [1], the Crystallinity result is listed as “amorphous”. Moreover, in data set [2], the “Salt (primary screen grade: purity, crystallinity and stability)” value (shortened to “Salt”) is “+++”.
On to `Cl` [Hydrochloric], for which the Crystallinity entry in data set [1] is “amorphous”. For the same compound, the “Salt” value in data set [2] is “+++”.
`O=C(O)CC(=O)O` [Malonic]: the “Salt” value in data set [2] is given as “−”.
The same measure, in the same setting: for Adipic the value was “++”.
With `COc1ccc(NC(=O)c2ccc(C(=N)N(C)C)cc2)c(C(=O)Nc2ccc(Cl)cn2)c1` [Maleate], the moisture stability entry in data set [3] is “excellent moisture stability”. Also, in data set [4] (thermodynamic from solid, water, 25° C., 24 hr, as parent free form), the solubility at 24 h lay within 2050 to 2270 µg/mL. For the same compound, the “Measured LogPion” value in data set [5] is given as −0.08. The logD in data set [5] (read-out: Measured LogD) amounted to 0.09. Moreover, in data set [5] (read-out: Measured LogP), the logP was 3.09. The “thermal and hydrolytic stability (in words)” value in data set [6] (listed as maleate salt) is “best stability observed”; in data set [6] (listed as maleate salt of Formula II) it was “excellent”.
In the case of Propionic, the Crystallinity result in data set [1] is “crystalline”. In data set [6], the “Hydrolyzed Amidine Content (3 days)” value worked out at 2.22%, the “Hydrolyzed Amidine Content (6 days)” value came out at 2.97% and the “Hydrolyzed Amidine Content (10 days)” value is 1.71%. The “Salt” value in data set [2] was “+++”.
For `O=S(=O)(O)c1cccc2c(S(=O)(=O)O)cccc12` [Naphthalene-1,5-disulfonic], in data set [2], the “Salt” value is given as “+”.
Consider `CC(=O)O` [Acetate], for which, in data set [1], the “crystallinity (in words)” value is on record as “good crystallinity” and the Crystallinity entry is “crystalline”. For the same compound, in data set [6], the “thermal and hydrolytic stability (in words)” value is “did not possess good thermal and hydrolytic stability”; the “Hydrolyzed Amidine Content (3 days)” value is 0.62-1.11%; the “Hydrolyzed Amidine Content (6 days)” value was 2.30-3.56%; the “Hydrolyzed Amidine Content (10 days)” value was 3.61-7.90%.
As for `COc1ccc(NC(=O)c2ccc(C(=N)N(C)C)cc2)c(C(=O)Nc2ccc(Cl)cn2)c1` [compound of Formula I], the “solubility (in words)” value in data set [4] is given as “did not exhibit optimum solubility”. Moreover, in data set [7], the “factor Xa inhibition (in words)” value was “potent factor Xa inhibitor”.

Source of the values: patent US9555023B2, “Pharmaceutical salts and polymorphs of a factor Xa inhibitor” (Millennium Pharmaceuticals, Inc., priority 2005, dated 2017).
